According to ChEMBL document CHEMBL3774333, “Identification of SNAIL1 Peptide-Based Irreversible Lysine-Specific Demethylase 1-Selective Inactivators” (J Med Chem, 2016):
Calls of active or inactive are those of the source. The rule behind the calls is not given here.

Legend:
[1] = target: T1, Lysine-specific histone demethylase 1A (Homo sapiens, UniProt O60341); assay: biochemical
Description: Inhibition of full length N-terminal His-tagged human recombinant LSD1 (1 to 852 residues) expressed in Escherichia coli BL21(DE3) cells using H3K4me2 peptide as substrate preincubated for 5 mins followed by substrate addition measured for 30 mins by peroxidase coupled assay

[2] = target: T2, Lysine-specific demethylase 5A (Homo sapiens, UniProt P29375); assay: Inhibition of JARID1A in human HeLa cells assessed as H3K4me3/H3 ratio at 5 uM after 24 hrs by Western blot analysis in absence of fetal bovine serum; format: cell-based
[3] = target: T3, Lysine-specific histone demethylase 2 (Homo sapiens) (UniProt Q8NB78); assay: Inhibition of LSD2 in human HeLa cells assessed as H3K4me1/H3 ratio at 5 uM after 24 hrs by Western blot analysis in absence of fetal bovine serum; format: cell-based
T3 sequence (whole entry): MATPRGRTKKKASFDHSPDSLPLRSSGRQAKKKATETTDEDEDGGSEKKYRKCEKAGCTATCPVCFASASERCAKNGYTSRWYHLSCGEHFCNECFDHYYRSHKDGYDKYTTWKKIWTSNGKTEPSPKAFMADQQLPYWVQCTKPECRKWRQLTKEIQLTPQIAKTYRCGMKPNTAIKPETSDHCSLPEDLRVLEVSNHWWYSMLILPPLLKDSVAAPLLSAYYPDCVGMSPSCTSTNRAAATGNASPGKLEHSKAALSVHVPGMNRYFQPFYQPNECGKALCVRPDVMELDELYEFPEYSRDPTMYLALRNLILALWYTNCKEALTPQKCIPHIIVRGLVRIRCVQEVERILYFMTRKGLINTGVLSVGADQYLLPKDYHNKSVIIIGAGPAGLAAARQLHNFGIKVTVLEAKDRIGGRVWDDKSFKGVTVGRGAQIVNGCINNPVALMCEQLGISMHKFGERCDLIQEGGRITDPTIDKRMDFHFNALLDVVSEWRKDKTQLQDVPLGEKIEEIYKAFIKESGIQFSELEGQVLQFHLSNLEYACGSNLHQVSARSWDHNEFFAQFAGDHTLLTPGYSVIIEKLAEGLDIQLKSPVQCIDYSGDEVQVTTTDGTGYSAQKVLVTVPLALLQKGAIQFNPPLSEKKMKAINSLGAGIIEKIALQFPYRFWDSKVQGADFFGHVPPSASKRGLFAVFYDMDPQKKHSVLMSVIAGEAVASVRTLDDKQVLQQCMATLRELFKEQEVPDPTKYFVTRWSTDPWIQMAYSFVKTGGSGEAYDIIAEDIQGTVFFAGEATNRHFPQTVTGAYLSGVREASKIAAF

[4] = target: T3, Lysine-specific histone demethylase 2 (Homo sapiens); assay: Inhibition of LSD2 in human HeLa cells assessed as H3K4me1/H3 ratio at 10 uM after 24 hrs by Western blot analysis in absence of fetal bovine serum; format: cell-based
Homo sapiens [5] = organism: Homo sapiens
Homo sapiens [6] = organism: Homo sapiens; remark: listed apart in the source
[7] = target: T4, Amine oxidase [flavin-containing] A (Homo sapiens, UniProt P21397); assay: biochemical
T4 sequence (P21397 whole entry): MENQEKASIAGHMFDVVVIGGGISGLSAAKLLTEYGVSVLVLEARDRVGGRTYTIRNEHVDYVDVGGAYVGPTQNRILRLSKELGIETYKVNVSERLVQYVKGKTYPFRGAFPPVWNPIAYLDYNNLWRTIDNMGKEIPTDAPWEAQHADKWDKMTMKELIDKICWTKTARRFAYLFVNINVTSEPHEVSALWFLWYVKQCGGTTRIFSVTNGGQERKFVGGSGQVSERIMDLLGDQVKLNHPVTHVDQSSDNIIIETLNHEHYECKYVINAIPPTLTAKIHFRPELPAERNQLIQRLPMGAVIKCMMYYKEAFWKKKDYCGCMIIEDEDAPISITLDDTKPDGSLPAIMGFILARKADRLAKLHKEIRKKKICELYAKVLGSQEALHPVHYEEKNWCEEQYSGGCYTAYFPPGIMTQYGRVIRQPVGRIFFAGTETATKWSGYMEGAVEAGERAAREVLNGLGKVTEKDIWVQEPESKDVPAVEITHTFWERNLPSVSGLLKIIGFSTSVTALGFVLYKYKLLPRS
Description: Inhibition of human recombinant MAO-A expressed in baculovirus infected BTI insect cells using (4S)-4,5-dihydro-2-(6-hydroxybenzothiazolyl)-4-thiazolecarboxylic acid as substrate incubated for 60 mins by MAO-Glo assay

[8] = target: T3, Lysine-specific histone demethylase 2 (Homo sapiens); assay: Inhibition of LSD2 in human HeLa cells assessed as H3K4me1/H3 ratio at 20 uM after 24 hrs by Western blot analysis in absence of fetal bovine serum; format: cell-based
[9] = target: T1, Lysine-specific histone demethylase 1A; conditions: 22 h
Description: Drug metabolism assessed as LSD1 (unknown origin)-mediated compound-FAD adduct formation after 22 hrs by MALDI-TOF mass spectrometric analysis

Homo sapiens [10] = organism: Homo sapiens; remark: listed apart in the source
[11] = target: T5, Lysine-specific histone demethylase 2 (Homo sapiens, UniProt Q8NB78); assay: biochemical
T5 sequence (Q8NB78 whole entry): T3 sequence (whole entry)
Description: Inhibition of full length N-terminal His-tagged human LSD2 (1 to 822 residues) expressed in Escherichia coli BL21(DE3) cells using H3K4me2 peptide substrate by MALDI-TOF mass spectrometric analysis

HeLa = assay: Antiproliferative activity against human HeLa cells assessed as inhibition of cell viability at 12.5 to 100 uM treated for 24 hrs measured after 48 hrs by alamar blue assay in absence of fetal bovine serum; format: functional, cell-based
[12] = target: T1, Lysine-specific histone demethylase 1A; assay: Inhibition of LSD1 in human HeLa cells assessed as H3K4me2/H3 ratio at 10 uM after 24 hrs by Western blot analysis in absence of fetal bovine serum; format: cell-based
[13] = target: T2, Lysine-specific demethylase 5A
Description: Inhibition of JARID1A (unknown origin) using H3K4me3 peptide substrate preincubated for 5 mins followed by substrate addition by MALDI-TOF mass spectrometric analysis

[14] = target: T1, Lysine-specific histone demethylase 1A; assay: Inhibition of LSD1 in human HeLa cells assessed as increase in H3K4me2 level after 24 hrs by Western blot analysis in absence of fetal bovine serum; format: cell-based
[15] = target: T2, Lysine-specific demethylase 5A; assay: Inhibition of JARID1A in human HeLa cells assessed as H3K4me3/H3 ratio at 10 uM after 24 hrs by Western blot analysis in absence of fetal bovine serum; format: cell-based
Homo sapiens [16] = organism: Homo sapiens; remark: listed apart in the source
[17] = target: T1, Lysine-specific histone demethylase 1A; assay: Inhibition of LSD1 in human HeLa cells assessed as H3K4me2/H3 ratio at 5 uM after 24 hrs by Western blot analysis in absence of fetal bovine serum; format: cell-based
[18] = target: T2, Lysine-specific demethylase 5A; assay: Inhibition of JARID1A in human HeLa cells assessed as H3K4me3/H3 ratio at 20 uM after 24 hrs by Western blot analysis in absence of fetal bovine serum; format: cell-based
[19] = target: T6, Amine oxidase [flavin-containing] B (Homo sapiens, UniProt P27338); assay: biochemical
T6 sequence (P27338 whole entry): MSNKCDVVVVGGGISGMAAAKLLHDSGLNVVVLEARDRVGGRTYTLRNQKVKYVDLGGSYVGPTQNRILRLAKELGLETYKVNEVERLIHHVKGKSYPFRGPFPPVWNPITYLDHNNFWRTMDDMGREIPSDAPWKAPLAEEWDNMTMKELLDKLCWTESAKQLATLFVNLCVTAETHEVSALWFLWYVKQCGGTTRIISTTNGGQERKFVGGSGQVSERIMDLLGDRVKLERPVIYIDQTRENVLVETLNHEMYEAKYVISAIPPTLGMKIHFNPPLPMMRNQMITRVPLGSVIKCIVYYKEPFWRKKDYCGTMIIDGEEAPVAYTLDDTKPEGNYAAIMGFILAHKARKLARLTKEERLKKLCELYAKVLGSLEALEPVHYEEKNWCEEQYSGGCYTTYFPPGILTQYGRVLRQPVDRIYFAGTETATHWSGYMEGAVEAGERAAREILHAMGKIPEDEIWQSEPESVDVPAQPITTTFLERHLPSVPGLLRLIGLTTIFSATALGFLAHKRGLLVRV
Description: Inhibition of human recombinant MAO-B expressed in baculovirus infected BTI insect cells using (4S)-4,5-dihydro-2-(6-hydroxybenzothiazolyl)-4-thiazolecarboxylic acid as substrate incubated for 60 mins by MAO-Glo assay

[20] = target: T1, Lysine-specific histone demethylase 1A; assay: Inhibition of LSD1 in human HeLa cells assessed as H3K4me2/H3 ratio at 20 uM after 24 hrs by Western blot analysis in absence of fetal bovine serum; format: cell-based

T2 sequence (P29375 whole entry): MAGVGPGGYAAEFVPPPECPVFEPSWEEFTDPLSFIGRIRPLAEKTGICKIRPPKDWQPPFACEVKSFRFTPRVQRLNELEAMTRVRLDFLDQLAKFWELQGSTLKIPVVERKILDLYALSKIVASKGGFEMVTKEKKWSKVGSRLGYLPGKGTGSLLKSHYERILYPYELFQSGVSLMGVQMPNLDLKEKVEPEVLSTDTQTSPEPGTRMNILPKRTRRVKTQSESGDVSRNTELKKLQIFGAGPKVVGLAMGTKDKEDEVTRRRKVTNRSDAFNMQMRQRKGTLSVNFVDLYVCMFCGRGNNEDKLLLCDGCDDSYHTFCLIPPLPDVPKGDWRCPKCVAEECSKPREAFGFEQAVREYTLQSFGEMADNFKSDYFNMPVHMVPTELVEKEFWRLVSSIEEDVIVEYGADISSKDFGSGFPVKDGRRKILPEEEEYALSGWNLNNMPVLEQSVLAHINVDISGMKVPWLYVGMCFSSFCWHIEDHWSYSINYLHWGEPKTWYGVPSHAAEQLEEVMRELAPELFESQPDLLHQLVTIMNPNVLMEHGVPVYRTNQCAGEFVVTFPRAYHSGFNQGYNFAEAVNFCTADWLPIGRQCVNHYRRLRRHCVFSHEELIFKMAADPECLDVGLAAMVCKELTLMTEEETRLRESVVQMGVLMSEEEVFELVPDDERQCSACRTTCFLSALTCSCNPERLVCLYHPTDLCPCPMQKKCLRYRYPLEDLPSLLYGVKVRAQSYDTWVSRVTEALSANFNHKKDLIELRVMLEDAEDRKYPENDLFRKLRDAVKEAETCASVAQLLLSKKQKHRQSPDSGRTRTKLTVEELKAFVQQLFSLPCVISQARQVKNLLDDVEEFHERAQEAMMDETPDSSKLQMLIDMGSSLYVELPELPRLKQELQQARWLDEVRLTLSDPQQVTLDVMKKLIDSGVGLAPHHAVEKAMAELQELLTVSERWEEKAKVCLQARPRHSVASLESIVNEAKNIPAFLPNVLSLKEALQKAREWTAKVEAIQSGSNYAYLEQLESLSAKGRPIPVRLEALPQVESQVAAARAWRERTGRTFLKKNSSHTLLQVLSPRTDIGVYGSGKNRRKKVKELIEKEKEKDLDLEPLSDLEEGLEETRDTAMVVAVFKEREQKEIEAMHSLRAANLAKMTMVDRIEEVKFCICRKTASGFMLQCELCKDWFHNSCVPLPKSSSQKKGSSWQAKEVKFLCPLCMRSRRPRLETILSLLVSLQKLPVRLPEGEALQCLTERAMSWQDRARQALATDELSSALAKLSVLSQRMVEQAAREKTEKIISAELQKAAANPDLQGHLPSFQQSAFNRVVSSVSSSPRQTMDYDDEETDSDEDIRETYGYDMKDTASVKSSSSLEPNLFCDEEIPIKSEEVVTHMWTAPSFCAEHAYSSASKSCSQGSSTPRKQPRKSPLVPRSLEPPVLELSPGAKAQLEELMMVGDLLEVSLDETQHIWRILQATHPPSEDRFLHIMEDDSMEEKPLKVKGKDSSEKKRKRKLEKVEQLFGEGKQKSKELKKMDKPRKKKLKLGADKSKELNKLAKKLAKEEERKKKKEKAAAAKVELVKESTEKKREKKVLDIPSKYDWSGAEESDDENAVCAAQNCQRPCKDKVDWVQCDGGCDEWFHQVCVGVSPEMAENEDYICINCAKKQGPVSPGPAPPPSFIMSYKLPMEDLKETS

Structure (SMILES) | IC50 [1] | Ratio IC50 (Homo sapiens [5]) | Ratio IC50 (Homo sapiens [6]) | IC50 [7] | Drug metabolism [9] | Ratio IC50 (Homo sapiens [10]) | IC50 [11] | inhibition (HeLa) | IC50 [13] | Ratio IC50 (Homo sapiens [16]) | IC50 [19] | Ratio [20] | also measured
C#CCN(C)CCC[C@H](NC(=O)[C@H](CO)NC(=O)[C@H](CCCNC(=N)N)NC(=O)[C@@H]1CCCN1)C(=O)N[C@@H](CC(C)C)C(=O)N[C@H](C(=O)N[C@@H](CCCNC(=N)N)C(=O)N[C@@H](CCCCN)C(=O)N1CCC[C@H]1C(=O)N[C@@H](CO)C(=O)N[C@@H](CC(=O)O)C(=O)N1CCC[C@H]1C(=O)N[C@@H](CC(N)=O)C(=O)N[C@@H](CCCNC(=N)N)C(=O)N[C@@H](CCCCN)C(=O)N1CCC[C@H]1C(=O)N[C@@H](CC(N)=O)C(=O)N[C@@H](Cc1ccc(O)cc1)C(=O)N[C@@H](CO)C(=O)N[C@@H](CCC(N)=O)C(N)=O)C(C)C | 17 µM |  |  |  |  |  |  |  |  |  |  |  | 
C#CCN(CCC[C@H](NC(=O)[C@H](CO)NC(=O)[C@H](CCCNC(=N)N)NC(=O)[C@@H]1CCCN1)C(=O)N[C@@H](CC(C)C)C(=O)N[C@H](C(=O)N[C@@H](CCCNC(=N)N)C(=O)N[C@@H](CCCCN)C(=O)N1CCC[C@H]1C(=O)N[C@@H](CO)C(=O)N[C@@H](CC(=O)O)C(=O)N1CCC[C@H]1C(=O)N[C@@H](CC(N)=O)C(=O)N[C@@H](CCCNC(=N)N)C(=O)N[C@@H](CCCCN)C(=O)N1CCC[C@H]1C(=O)N[C@@H](CC(N)=O)C(=O)N[C@@H](Cc1ccc(O)cc1)C(=O)N[C@@H](CO)C(=O)N[C@@H](CCC(N)=O)C(N)=O)C(C)C)Cc1ccccc1 | 40 µM |  |  |  |  |  |  |  |  |  |  |  | 
CC(C)C[C@@H](NC(=O)[C@@H](CCCNN)NC(=O)[C@@H](CO)NC(=O)[C@@H](CCCNC(=N)N)NC(=O)[C@H]1CCCN1)C(=O)N[C@@H](C(=O)N[C@H](CCCNC(=N)N)C(=O)N[C@@H](CCCCNC(=O)COCCOCCNC(=O)[C@@H](CCCNC(=N)N)NC(=O)[C@@H](CCCNC(=N)N)NC(=O)[C@@H](CCCNC(=N)N)NC(=O)[C@@H](CCCNC(=N)N)NC(=O)[C@@H](CCCNC(=N)N)NC(=O)[C@@H](CCCNC(=N)N)NC(=O)[C@@H](CCCNC(=N)N)NC(=O)[C@@H](N)CCCNC(=N)N)C(=O)N1CCC[C@H]1C(=O)N[C@@H](CO)C(=O)N[C@@H](CC(=O)O)C(=O)N1CCC[C@H]1C(=O)N[C@@H](CC(N)=O)C(=O)N[C@@H](CCCNC(=N)N)C(=O)N[C@@H](CCCCN)C(=O)N1CCC[C@H]1C(=O)N[C@H](CC(N)=O)C(=O)N[C@@H](Cc1ccc(O)cc1)C(=O)N[C@@H](CO)C(=O)N[C@@H](CCC(N)=O)C(N)=O)C(C)C | 0.29 µM | 16 | 23 | > 30 µM | metabolite_detected | > 94 | 23.2 µM | Active | 12.9 µM | 94 | 30 µM | 2.08 | Ratio [2]: 1.03; Ratio [3]: 0.96; Ratio [4]: 0.99; Ratio [8]: 1.05; Ratio [12]: 1.73; inhibition [14]: Dose-dependent effect; Ratio [15]: 0.98; Ratio [17]: 1.29; Ratio [18]: 1.01
CC(C)C[C@H](NC(=O)[C@H](CCCCN[C@H]1C[C@@H]1c1ccccc1)NC(=O)[C@H](CO)NC(=O)[C@H](CCCNC(=N)N)NC(=O)[C@@H]1CCCN1)C(=O)N[C@H](C(=O)N[C@@H](CCCNC(=N)N)C(=O)N[C@@H](CCCCN)C(=O)N1CCC[C@H]1C(=O)N[C@@H](CO)C(=O)N[C@@H](CC(=O)O)C(=O)N1CCC[C@H]1C(=O)N[C@@H](CC(N)=O)C(=O)N[C@@H](CCCNC(=N)N)C(=O)N[C@@H](CCCCN)C(=O)N1CCC[C@H]1C(=O)N[C@@H](CC(N)=O)C(=O)N[C@@H](Cc1ccc(O)cc1)C(=O)N[C@@H](CO)C(=O)N[C@@H](CCC(N)=O)C(N)=O)C(C)C | 63 µM |  |  |  |  |  |  |  |  |  |  |  | 
CC(C)C[C@@H](NC(=O)[C@@H](CCCNN)NC(=O)[C@@H](CO)NC(=O)[C@H](CCCNC(=N)N)NC(=O)[C@@H]1CCCN1)C(=O)N[C@@H](C(=O)N[C@H](CCCNC(=N)N)C(=O)N[C@H](CCCCN)C(=O)N1CCC[C@@H]1C(=O)N[C@@H](CO)C(=O)N[C@@H](CC(=O)O)C(=O)N1CCC[C@H]1C(=O)N[C@@H](CC(N)=O)C(=O)N[C@@H](CCCNC(=N)N)C(=O)N[C@H](CCCCNC(=O)[C@H](CCCNC(=N)N)NC(=O)[C@H](CCCNC(=N)N)NC(=O)[C@H](CCCNC(=N)N)NC(=O)[C@H](CCCNC(=N)N)NC(=O)[C@H](CCCNC(=N)N)NC(=O)[C@H](CCCNC(=N)N)NC(=O)[C@H](CCCNC(=N)N)NC(=O)[C@H](N)CCCNC(=N)N)C(=O)N1CCC[C@H]1C(=O)N[C@H](CC(N)=O)C(=O)N[C@@H](Cc1ccc(O)cc1)C(=O)N[C@@H](CO)C(=O)N[C@@H](CCC(N)=O)C(N)=O)C(C)C | 0.32 µM | 16 | 23 | > 30 µM | metabolite_detected | > 94 | 7.51 µM | Active | 5.05 µM | 94 | 30 µM | 1.52 | 
CC(C)C[C@H](NC(=O)[C@H](CCCCN)NC(=O)[C@H](CO)NC(=O)[C@@H](CCCNC(=N)N)NC(=O)[C@H]1CCCN1)C(=O)N[C@H](C(=O)N[C@@H](CCCNC(=N)N)C(=O)N[C@@H](CCCCNC(=O)[C@@H](CCCNC(=N)N)NC(=O)[C@@H](CCCNC(=N)N)NC(=O)[C@@H](CCCNC(=N)N)NC(=O)[C@@H](CCCNC(=N)N)NC(=O)[C@@H](CCCNC(=N)N)NC(=O)[C@@H](CCCNC(=N)N)NC(=O)[C@@H](CCCNC(=N)N)NC(=O)[C@@H](N)CCCNC(=N)N)C(=O)N1CCC[C@H]1C(=O)N[C@@H](CO)C(=O)N[C@@H](CC(=O)O)C(=O)N1CCC[C@H]1C(=O)N[C@@H](CC(N)=O)C(=O)N[C@@H](CCCNC(=N)N)C(=O)N[C@@H](CCCCN)C(=O)N1CCC[C@H]1C(=O)N[C@H](CC(N)=O)C(=O)N[C@@H](Cc1ccc(O)cc1)C(=O)N[C@@H](CO)C(=O)N[C@@H](CCC(N)=O)C(N)=O)C(C)C |  |  |  |  |  |  |  | inactive |  |  |  | 1.06 | 
